This is an account of results in patent publication US9957271B2, “Substituted bicyclic aza-heterocycles and analogues as sirtuin modulators” (GlaxoSmithKline, LLC, priority 2012, dated 2018).

The target of the test is T1, SIRT1 (Homo sapiens, UniProt Q96EB6).
T1 sequence (Q96EB6 1-747): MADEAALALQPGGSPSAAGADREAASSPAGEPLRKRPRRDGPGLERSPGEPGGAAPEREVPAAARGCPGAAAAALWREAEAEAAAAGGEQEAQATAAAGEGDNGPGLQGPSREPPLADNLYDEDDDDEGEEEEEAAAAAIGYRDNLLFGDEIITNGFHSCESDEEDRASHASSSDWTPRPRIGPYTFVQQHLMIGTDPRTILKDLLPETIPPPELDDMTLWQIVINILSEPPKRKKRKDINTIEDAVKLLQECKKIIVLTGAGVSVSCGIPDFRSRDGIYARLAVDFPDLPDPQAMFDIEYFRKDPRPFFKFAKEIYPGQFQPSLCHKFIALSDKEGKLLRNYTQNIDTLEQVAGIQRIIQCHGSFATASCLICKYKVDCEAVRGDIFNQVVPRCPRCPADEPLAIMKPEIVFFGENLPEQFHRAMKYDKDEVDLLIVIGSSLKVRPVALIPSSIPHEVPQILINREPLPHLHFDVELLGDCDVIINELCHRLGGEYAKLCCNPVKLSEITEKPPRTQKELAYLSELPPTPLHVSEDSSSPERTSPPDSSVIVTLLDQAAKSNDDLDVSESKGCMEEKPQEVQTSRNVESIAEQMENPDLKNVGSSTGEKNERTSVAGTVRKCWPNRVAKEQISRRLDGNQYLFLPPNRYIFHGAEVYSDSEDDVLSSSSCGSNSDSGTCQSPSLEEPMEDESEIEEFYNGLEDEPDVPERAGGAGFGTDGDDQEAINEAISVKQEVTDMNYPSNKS
The test is described as follows: Trp mass spectrometry assay of SIRT1 activity. As to conditions: Trp assay; for Trp EC1.5 (μM): concentration giving 150% activation of SIRT1; for Emax: percent maximum fold activation, read-out: Trp % Fold Act. The format is biochemical. The method in brief: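 His-tagged SIRT1 expressed in E. coli BL21(DE3), 10 nM, incubated 25 min at 25° C. with 0.5 μM Ac-RHKK(Ac)W-NH2 peptide and 120 μM βNAD+ in 50 mM HEPES pH 7.5, […], 1 mM DTT, 0.05% BSA; formic acid stop. OAADPR or deacetylated peptide measured by mass spectrometry; EC1.5 and percent maximum activation versus DMSO control.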

Regarding `O=C(Nc1cc(OC[C@@H](O)CO)cnn1)c1cnc2ccc(N3CC[C@H](F)C3)nn12` [Compound 917], the “Trp EC1.5 (μM)” value was “B (EC1.5 1-25 μM)” and the Emax was under 350%. `COc1nccc(NC(=O)c2cnc3ccc(N4CC[C@H](F)C4)nn23)n1` [Compound 918]: the “Trp EC1.5 (μM)” value was “B (EC1.5 1-25 μM)” and the Emax was under 350%. On to `O=C(Nc1ccc(C(F)(F)F)nc1)c1cnc2ccc(N3CC[C@H](F)C3)nn12` [Compound 919], for which the “Trp EC1.5 (μM)” value is on record as “C (EC1.5>25 μM)” and the Emax was under 350%. With `Cc1ccc(NC(=O)c2cnc3ccc(N4CC[C@H](F)C4)nn23)cn1` [Compound 920], the “Trp EC1.5 (μM)” value is “B (EC1.5 1-25 μM)” and the Emax is under 350%. Taken in the same sequence, the figures for `O=C(Nc1ccncn1)c1cnc2ccc(N3CC(F)(F)C3)nn12` [Compound 921] were “C (EC1.5>25 μM)” and under 350%. `COc1cc(NC(=O)c2cnc3ccc(N4CC[C@H](F)C4)nn23)ncn1` [Compound 922]: the “Trp EC1.5 (μM)” value is “C (EC1.5>25 μM)” and the Emax is under 350%.

Consider `CN(C)c1ccnc(NC(=O)c2cnc3ccc(N4CC[C@H](F)C4)nn23)n1` [Compound 923], for which the “Trp EC1.5 (μM)” value was “A (EC1.5<1 μM)” and the Emax is at least 350%. Taken in the same sequence, the figures for `CN(C)c1cnnc(NC(=O)c2cnc3ccc(N4CC[C@H](F)C4)nn23)c1` [Compound 924] were “B (EC1.5 1-25 μM)” and under 350%.

For `O=C(Nc1cnccn1)c1cnc2ccc(N3CC(F)(F)C3)nn12` [Compound 926], the “Trp EC1.5 (μM)” value is given as “C (EC1.5>25 μM)” and the Emax was under 350%. In the case of `O=C(Nc1ccccn1)c1cnc2ccc(N3CCC(F)(F)CC3)nn12` [Compound 927], the “Trp EC1.5 (μM)” value is on record as “B (EC1.5 1-25 μM)” and the Emax is at least 350%. Consider `O=C(Nc1cccnc1)c1cnc2ccc(N3CCC(F)(F)CC3)nn12` [Compound 928], for which the “Trp EC1.5 (μM)” value is on record as “B (EC1.5 1-25 μM)” and the Emax was under 350%. The matching figures for `O=C(Nc1cncc(F)c1)c1cnc2ccc(N3CCC(F)(F)CC3)nn12` [Compound 929]: “B (EC1.5 1-25 μM)” and at least 350%.

On to `O=C(Nc1cccnn1)c1cnc2ccc(N3CCC(F)(F)CC3)nn12` [Compound 930], for which the “Trp EC1.5 (μM)” value is listed as “B (EC1.5 1-25 μM)” and the Emax was at least 350%.

As for `O=C(Nc1ccncc1F)c1cnc2ccc(N3CCCC(C(F)(F)F)C3)nn12` (stereo not shown) [Compound 931], the “Trp EC1.5 (μM)” value is listed as “A (EC1.5<1 μM)” and the Emax is at least 350%. Turning to `O=C(Nc1cccnc1)c1cnc2ccc(N3CCCC(C(F)(F)F)C3)nn12` (stereo not shown) [Compound 932], the “Trp EC1.5 (μM)” value is reported as “A (EC1.5<1 μM)” and the Emax was at least 350%. The matching figures for `CO[C@H]1CCN(c2ccc3ncc(C(=O)Nc4ccccn4)n3n2)C1` [Compound 933]: “B (EC1.5 1-25 μM)” and under 350%. Taken in the same sequence, the figures for `CO[C@H]1CCN(c2ccc3ncc(C(=O)Nc4cccnc4)n3n2)C1` [Compound 934] were “B (EC1.5 1-25 μM)” and under 350%. Consider `CO[C@H]1CCN(c2ccc3ncc(C(=O)Nc4ccc(F)cn4)n3n2)C1` [Compound 935], for which the “Trp EC1.5 (μM)” value is “B (EC1.5 1-25 μM)” and the Emax is under 350%. The matching figures for `CO[C@H]1CCN(c2ccc3ncc(C(=O)Nc4ccncc4F)n3n2)C1` [Compound 936]: “B (EC1.5 1-25 μM)” and under 350%. Take `O=C(Nc1cccnc1)c1cnn2ccc(N3CCCCC3C(F)(F)F)nc12` (stereo not shown) [Compound 945, N-(pyridin-3-yl)-5-(2-(trifluoromethyl)piperidin-1-yl)pyrazolo[1,5-a]pyrimidine-3-carboxamide]: the “Trp EC1.5 (μM)” value is given as “A (EC1.5<1 μM)” and the Emax was at least 350%. Taken in the same sequence, the figures for `CN1CCN(c2ccc3ncc(C(=O)Nc4cccnc4)n3n2)CC1` [Compound 946] were “C (EC1.5>25 μM)” and under 350%. Regarding `CN1CCN(c2ccc3ncc(C(=O)Nc4ccc(F)cn4)n3n2)CC1` [Compound 947], the Emax is under 350%. On the same count and under the same terms, then `CN1CCN(c2ccc3ncc(C(=O)Nc4ccccn4)n3n2)CC1` [Compound 948], with under 350%; and `CN1CCN(c2ccc3ncc(C(=O)Nc4ccncc4F)n3n2)CC1` [Compound 949], with under 350%. On the same count and under the same terms, as for `CN1CCN(c2ccc3ncc(C(=O)Nc4cccnn4)n3n2)CC1` [Compound 950], the figure is under 350%; as for `CN1CCN(c2ccc3ncc(C(=O)Nc4cncc(F)c4)n3n2)CC1` [Compound 951], under 350%. On the same count and under the same terms, as for `CC1(C)CCN(c2ccc3ncc(C(=O)Nc4ccccn4)n3n2)C1` [Compound 952], the figure is at least 350%.

On to `CC1(C)CCN(c2ccc3ncc(C(=O)Nc4cccnc4)n3n2)C1` [Compound 953], for which the Emax was at least 350%. For the molecule `CC1(C)CCN(c2ccc3ncc(C(=O)Nc4ccc(F)cn4)n3n2)C1` [Compound 954], the Emax was under 350%. Still for that read-out and setting: as for `CC1(C)CCN(c2ccc3ncc(C(=O)Nc4cccnn4)n3n2)C1` [Compound 955], the figure is at least 350%; as for `CC1(C)CCN(c2ccc3ncc(C(=O)Nc4cncc(F)c4)n3n2)C1` [Compound 956], under 350%. For the molecule `O=C(Nc1ccccn1)c1cnn2ccc(N3CCCCC3C(F)(F)F)nc12` (stereo not shown) [Compound 957], the Emax is at least 350%. As to `O=C(Nc1cccnc1)c1cnc2ccc(N3CCC(C(F)(F)F)C3)nn12` (stereo not shown) [Compound 958], the Emax was at least 350%. The same measure, in the same setting: as for `O=C(Nc1cncc(F)c1)c1cnc2ccc(N3CCC(C(F)(F)F)C3)nn12` (stereo not shown) [Compound 959], the figure is at least 350%; as for `CC1(C)CCN(c2ccc3ncc(C(=O)Nc4ccncc4F)n3n2)C1` [Compound 960], under 350%. Still for that read-out and setting: then `O=C(Nc1ccncn1)c1cnc2ccc(N3CCOCC3)nn12` [Compound 961], with under 350%; and `O=C(Nc1ccc(F)cn1)c1cnc2ccc(N3CCC(F)(F)CC3)nn12` [Compound 962], with under 350%. On the same count and under the same terms, as for `O=C(Nc1ccncc1F)c1cnc2ccc(N3CCC(F)(F)CC3)nn12` [Compound 963], the figure is under 350%; as for `O=C(Nc1ccncn1)c1cnc2ccc(N3CCC(F)(F)CC3)nn12` [Compound 964], under 350%; as for `Cc1nc(NC(=O)c2cnn3ccc(N4CCCCC4C(F)(F)F)nc23)sc1C` (stereo not shown) [Compound 965], at least 350%. Regarding `O=C(Nc1cccnc1)c1cnc2ccc(N3CCCC3C(F)(F)F)nn12` (stereo not shown) [Compound 966, N-(pyridin-3-yl)-6-(2-(trifluoromethyl)pyrrolidin-1-yl)imidazo[1,2-b]pyridazine-3-carboxamide], the “Trp EC1.5 (μM)” value is given as “A (EC1.5<1 μM)” and the Emax was at least 350%. With `O=C(Nc1cncc(F)c1)c1cnc2ccc(N3CCCC3C(F)(F)F)nn12` (stereo not shown) [Compound 967], the Emax is at least 350%.

As to `O=C(Nc1cccnn1)c1cnc2ccc(N3CCCC3C(F)(F)F)nn12` (stereo not shown) [Compound 968], the Emax was at least 350%. Still for that read-out and setting: then `Cc1nc(NC(=O)c2cnc3ccc(N4CCCC4C(F)(F)F)nn23)sc1C` (stereo not shown) [Compound 969], with at least 350%; and `O=C(Nc1ccncn1)c1cnc2ccc(N3CCCC3C(F)(F)F)nn12` (stereo not shown) [Compound 970, N-(pyrimidin-4-yl)-6-(2-(trifluoromethyl)pyrrolidin-1-yl)imidazo[1,2-b]pyridazine-3-carboxamide], with at least 350%; and `CN1CCN(c2ccc3ncc(C(=O)Nc4ccncn4)n3n2)CC1` [Compound 971], with under 350%.

For the molecule `CC1(C)CCN(c2ccc3ncc(C(=O)Nc4ccncn4)n3n2)C1` [Compound 972], the Emax was under 350%. Same read-out and setting: as for `CO[C@H]1CCN(c2ccc3ncc(C(=O)Nc4ccncn4)n3n2)C1` [Compound 973, (S)-6-(3-methoxypyrrolidin-1-yl)-N-(pyrimidin-4-yl)imidazo[1,2-b]pyridazine-3-carboxamide], the figure is under 350%; as for `O=C(Nc1ccccn1)c1cnc2ccc(N3CCCC3C(F)(F)F)nn12` (stereo not shown) [Compound 974], at least 350%; as for `CC1CCN(c2ccc3ncc(C(=O)Nc4ccccn4)n3n2)C1` (stereo not shown) [Compound 975], under 350%.

For `CC1CCN(c2ccc3ncc(C(=O)Nc4cccnc4)n3n2)C1` (stereo not shown) [Compound 976], the Emax was at least 350%. With `CC1CCN(c2ccc3ncc(C(=O)Nc4ccc(F)cn4)n3n2)C1` (stereo not shown) [Compound 977], the Emax was under 350%. Same read-out and setting: as for `CC1CCN(c2ccc3ncc(C(=O)Nc4cccnn4)n3n2)C1` (stereo not shown) [Compound 978], the figure is at least 350%.

Regarding `CC1CCN(c2ccc3ncc(C(=O)Nc4cncc(F)c4)n3n2)C1` (stereo not shown) [Compound 979], the Emax is at least 350%.
